Our source for the IC50 and EC50 values is ChEMBL document CHEMBL1201862, “PubChem BioAssay data set” (2004).

Active and inactive are the calls of the source.

Test [1] deals with T1, Tyrosine-protein phosphatase non-receptor type 22 (Homo sapiens, UniProt Q9Y2R2).
T1 sequence (Q9Y2R2 whole entry): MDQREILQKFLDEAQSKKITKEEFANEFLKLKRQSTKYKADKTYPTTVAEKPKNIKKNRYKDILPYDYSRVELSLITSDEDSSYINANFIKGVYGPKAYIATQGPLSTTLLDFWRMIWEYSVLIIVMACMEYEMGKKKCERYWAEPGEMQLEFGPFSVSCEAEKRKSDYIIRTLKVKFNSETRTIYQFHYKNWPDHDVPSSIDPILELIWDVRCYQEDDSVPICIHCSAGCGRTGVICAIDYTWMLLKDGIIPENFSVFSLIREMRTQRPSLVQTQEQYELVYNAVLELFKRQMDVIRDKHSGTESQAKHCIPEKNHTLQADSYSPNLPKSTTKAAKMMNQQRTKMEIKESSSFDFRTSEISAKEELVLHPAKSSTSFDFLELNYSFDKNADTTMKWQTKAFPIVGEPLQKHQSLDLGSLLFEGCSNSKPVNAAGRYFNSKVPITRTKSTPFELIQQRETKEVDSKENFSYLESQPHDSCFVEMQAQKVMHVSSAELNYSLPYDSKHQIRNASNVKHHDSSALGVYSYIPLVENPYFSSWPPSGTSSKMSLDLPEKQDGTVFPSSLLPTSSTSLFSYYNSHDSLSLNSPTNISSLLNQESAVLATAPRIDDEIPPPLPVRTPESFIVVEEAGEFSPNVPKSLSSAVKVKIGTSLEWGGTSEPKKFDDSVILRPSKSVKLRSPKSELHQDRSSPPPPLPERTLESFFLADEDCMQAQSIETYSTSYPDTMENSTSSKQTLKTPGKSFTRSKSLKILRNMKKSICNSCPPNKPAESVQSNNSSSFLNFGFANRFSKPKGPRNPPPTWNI
Briefly: SAR LYP1 Fluorescent Assay using pCAP substrate for In Vitro dose response studies - Set 2. [Related pubchem assays (depositor defined):AID1779, AID1784, AID2135, AID449727]. The class given is functional.

Test [2] deals with Tyrosine-protein phosphatase non-receptor type 12 (Homo sapiens, UniProt Q05209). Briefly: SAR Selectivity Analysis of small molecule inhibitors of PEST using pCAP in a fluorescence assay. [Related pubchem assays (depositor defined):AID1779, AID1784, AID2135]. The format is functional.
Test [3] concerns the target T1, Tyrosine-protein phosphatase non-receptor type 22. Put plainly: SAR LYP1 Fluorescent Assay using OMFP substrate for In Vitro dose response studies - Set 3. [Related pubchem assays (depositor defined):AID1779, AID1784, AID2140, AID2686]. The format is functional.
For test [4], the target named is T2, Tyrosine-protein phosphatase non-receptor type 7 (Homo sapiens, UniProt P35236).
T2 sequence (P35236 whole entry): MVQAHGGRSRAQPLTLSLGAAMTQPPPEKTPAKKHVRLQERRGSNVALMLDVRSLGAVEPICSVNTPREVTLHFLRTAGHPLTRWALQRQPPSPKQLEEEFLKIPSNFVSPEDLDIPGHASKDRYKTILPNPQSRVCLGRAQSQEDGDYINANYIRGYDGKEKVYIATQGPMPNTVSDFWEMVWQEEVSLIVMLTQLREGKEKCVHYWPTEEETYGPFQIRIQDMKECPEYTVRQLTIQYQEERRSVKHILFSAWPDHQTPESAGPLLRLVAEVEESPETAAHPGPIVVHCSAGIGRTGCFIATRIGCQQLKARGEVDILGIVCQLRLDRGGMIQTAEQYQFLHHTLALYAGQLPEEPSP
Put plainly: HePTP (PTPN7) phosphatase inhibitor potency, SAR follow-up, biochemical, set 2 (AID 449736). The format is functional.

The target in test [5] is T1, Tyrosine-protein phosphatase non-receptor type 22. Briefly: LYP (PTPN22) phosphatase inhibitor potency, SAR follow-up, biochemical, pCAP fluorogenic substrate, fluorescence, set 3 (AID 449727). The format is functional.
Test [6] has the same target. Briefly: SAR LYP1 Fluorescent Assay using OMFP substrate for In Vitro dose response studies - Set 2. [Related pubchem assays (depositor defined):AID1779, AID1784, AID2140, AID449726, AID488869]. The format is functional.
Test [7] deals with T3, Carboxy-terminal domain RNA polymerase II polypeptide A small phosphatase 1 (Homo sapiens, UniProt Q9GZU7).
T3 sequence (Q9GZU7 whole entry): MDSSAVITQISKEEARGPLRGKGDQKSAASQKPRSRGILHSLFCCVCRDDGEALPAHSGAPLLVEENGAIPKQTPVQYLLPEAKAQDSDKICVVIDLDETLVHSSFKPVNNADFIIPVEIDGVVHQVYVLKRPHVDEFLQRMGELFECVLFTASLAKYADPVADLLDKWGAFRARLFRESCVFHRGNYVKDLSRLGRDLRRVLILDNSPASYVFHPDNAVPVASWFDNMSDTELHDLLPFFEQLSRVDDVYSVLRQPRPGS
Briefly: inhibitors of CTDSP1, concentration-response testing, biochemical assay, absorbance-based, actives from ultra-high-throughput screening (AID 540297). The format is functional.

The next test deals with J774.A1. Briefly: Confirmation of image-based Screening Assay for Inhibitors of Phagocytosis. [Related pubchem assays (depositor defined):AID1029, AID1643]. The class given is functional, cell-based. As to conditions: Mus musculus.
Test [8] is described as follows: inhibition of K1F phage lysis, E. coli UTI89, bacterial capsule biogenesis inhibitors, alamar blue (AID 488966). The class given is functional.
Test [9] is described as follows: Luminescence Cell-Based Dose Response HTS to Identify Activators of Luciferase Translation or Activity in H4-C Neuroglioblastoma Cells. [Related pubchem assays: 1829 (Project Summary), 1814 (Primary HTS)]. The class given is functional.
Test [10] is described as follows: Luminescence Cell-Based Dose Response to Identify Activators of 5'UTR Stem-Loop Driven Prion Protein mRNA Translation in H4-C Neuroglioblastoma Cells. [Related pubchem assays: 1829 (Project Summary), 1814 (Primary HTS)]. The format is functional.
Test [11] can be described thus: Luminescence Cell-Based Dose Retest to Confirm Activators of 5'UTR Stem-Loop Driven Alpha-Synuclein mRNA Translation in H4 Neuroglioblastoma Cells. [Related pubchem assays (depositor defined):AID1813, AID1829]. The format is functional.
Test [12] in a line: Luminescence Cell-Based Dose Response HTS to Identify Activators of 5'UTR Stem-Loop Driven Prion Protein mRNA Translation in H4-C Neuroglioblastoma Cells. [Related pubchem assays: 1829 (Project Summary), 1814 (Primary HTS)]. The format is functional.
The nature of test [13]: Luminescence Cell-Based Dose Confirmation HTS to Identify Activators of 5'UTR Stem-Loop Driven Alpha-Synuclein mRNA Translation in H4 Neuroglioblastoma Cells. [Related pubchem assays: 1829 (Project Summary), 1814 (Primary HTS)]. The class given is functional.
The nature of test [14]: Luminescence Cell-Based Dose Response HTS to Identify Activators of Luciferase Translation or Activity in H4 […] Cells. [Related pubchem assays: 1829 (Project Summary), 1814 (Primary HTS)]. The format is functional.
The test system of the next test is H4. Briefly: Luminescence Cell-Based Dose Response HTS to Identify Activators of 5'UTR Stem-Loop Driven Prion Protein mRNA Translation in H4 Neuroglioblastoma Cells. [Related pubchem assays: 1829 (Project Summary), 1814 (Primary HTS)]. The format is functional. As to conditions: Homo sapiens.
Test [15] can be described thus: Luminescence Cell-Based Dose Response to Identify Activators of Luciferase Translation or Activity in H4-C Neuroglioblastoma Cells. [Related pubchem assays: 1829 (Project Summary), 1814 (Primary HTS)]. The class given is functional.
Test [16] can be described thus: Luminescence Cell-Based Dose Confirmation to Identify Activators of 5'UTR Stem-Loop Driven Alpha-Synuclein mRNA Translation in H4 Neuroglioblastoma Cells. [Related pubchem assays: 1829 (Project Summary), 1814 (Primary HTS)]. The class given is functional.
Test [17] has as its target Eukaryotic translation initiation factor 4H (Homo sapiens, UniProt Q15056). Put plainly: eIF4H inhibition in translation initiation, SAR follow-up (AID 435011). The class given is functional.
Test [18] has as its target Polyadenylate-binding protein 1 (Homo sapiens, UniProt P11940). Briefly: PABP inhibition in translation initiation, SAR follow-up (AID 435018). The format is functional.
Test [19] can be described thus: A cytotoxicity screen of small molecule inhibitors of the PhoP region in Salmonella typhi identified in the primary screen. [Related pubchem assays: 1850, 1864, 1985 ]. The format is functional.
Test [20] addresses T4, Bcl-2-related protein A1 (Mus musculus, UniProt Q07440).
T4 sequence (Q07440 whole entry): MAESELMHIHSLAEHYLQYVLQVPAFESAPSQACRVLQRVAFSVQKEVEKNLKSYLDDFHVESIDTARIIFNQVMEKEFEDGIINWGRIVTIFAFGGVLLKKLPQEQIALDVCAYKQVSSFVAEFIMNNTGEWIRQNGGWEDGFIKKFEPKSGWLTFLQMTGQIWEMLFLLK
Briefly: Bfl-1 inhibitors, primary screen, biochemical, fluorescence polarization, FITC-Bid, mouse (AID 432). For orientation: Fluorescence polarisation rises when a labelled molecule tumbles more slowly, as on binding a larger partner.

Test [21] has as its target T4, Bcl-2-related protein A1. Briefly: Bfl-1 inhibitors blocking BH3 peptide binding, confirmation, biochemical, TR-FRET, mouse Bfl-1 (AID 621).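 Note: TR-FRET binding of GST-Bfl-1 to FITC-labelled Bid peptide via terbium antibody.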 On the technique in general: In TR-FRET formats the signal depends on donor and acceptor labels being close together.
Test [22] deals with NACHT, LRR and PYD domains-containing protein 3 (Homo sapiens, UniProt Q96P20). Put plainly: NALP3 inhibitors in yeast, dose response, luminescent (AID 488799). The class given is functional.
Test [23] has as its target T5, Mannose-6-phosphate isomerase (Homo sapiens, UniProt P34949).
T5 sequence (P34949 whole entry): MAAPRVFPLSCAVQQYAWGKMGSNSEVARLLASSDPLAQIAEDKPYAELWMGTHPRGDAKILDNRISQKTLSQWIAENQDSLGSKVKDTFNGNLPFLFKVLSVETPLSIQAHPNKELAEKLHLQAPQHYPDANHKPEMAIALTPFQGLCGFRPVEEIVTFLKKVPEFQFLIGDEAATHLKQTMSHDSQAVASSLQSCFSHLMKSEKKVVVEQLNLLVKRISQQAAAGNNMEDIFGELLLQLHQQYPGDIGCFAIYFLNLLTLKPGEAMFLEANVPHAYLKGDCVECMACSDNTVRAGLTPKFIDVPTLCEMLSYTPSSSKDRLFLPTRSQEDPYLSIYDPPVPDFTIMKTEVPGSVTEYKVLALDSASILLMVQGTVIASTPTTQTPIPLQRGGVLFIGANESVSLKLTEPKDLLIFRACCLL
Put plainly: Confirmation of compounds inhibiting phosphomannose isomerase (PMI) via a fluorescence intensity assay using a high concentration of mannose 6-phosphate. [Related pubchem assays (depositor defined):AID1209, AID1220, AID1545, AID1553, AID1620].

The target of test [24] is T5, Mannose-6-phosphate isomerase. Put plainly: PMI enzyme inhibitors, confirmation, biochemical, fluorescence intensity (AID 1535).
Test [25] addresses Alkaline phosphatase, placental type (Homo sapiens, UniProt P05187). Put plainly: PLAP enzyme inhibitors, confirmation, biochemical, luminescence (AID 1512). The class given is functional.

Chain of Alkaline phosphatase, placental type (P05187 whole entry): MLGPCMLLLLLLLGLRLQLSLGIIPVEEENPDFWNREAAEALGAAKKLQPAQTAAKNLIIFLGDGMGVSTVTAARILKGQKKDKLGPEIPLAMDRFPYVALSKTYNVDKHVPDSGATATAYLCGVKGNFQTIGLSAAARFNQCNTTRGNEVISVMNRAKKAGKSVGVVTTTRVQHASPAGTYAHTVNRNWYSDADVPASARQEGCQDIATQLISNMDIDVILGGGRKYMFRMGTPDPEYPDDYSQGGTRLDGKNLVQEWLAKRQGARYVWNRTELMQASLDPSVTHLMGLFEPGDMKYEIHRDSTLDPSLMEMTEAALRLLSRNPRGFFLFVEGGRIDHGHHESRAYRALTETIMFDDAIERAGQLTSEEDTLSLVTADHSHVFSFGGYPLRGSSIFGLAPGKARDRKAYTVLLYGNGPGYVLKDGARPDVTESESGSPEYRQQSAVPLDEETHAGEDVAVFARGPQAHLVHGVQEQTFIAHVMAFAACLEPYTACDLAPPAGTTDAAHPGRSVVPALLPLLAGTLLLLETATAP
Chain of NACHT, LRR and PYD domains-containing protein 3 (Q96P20 whole entry, the tested form may be a part): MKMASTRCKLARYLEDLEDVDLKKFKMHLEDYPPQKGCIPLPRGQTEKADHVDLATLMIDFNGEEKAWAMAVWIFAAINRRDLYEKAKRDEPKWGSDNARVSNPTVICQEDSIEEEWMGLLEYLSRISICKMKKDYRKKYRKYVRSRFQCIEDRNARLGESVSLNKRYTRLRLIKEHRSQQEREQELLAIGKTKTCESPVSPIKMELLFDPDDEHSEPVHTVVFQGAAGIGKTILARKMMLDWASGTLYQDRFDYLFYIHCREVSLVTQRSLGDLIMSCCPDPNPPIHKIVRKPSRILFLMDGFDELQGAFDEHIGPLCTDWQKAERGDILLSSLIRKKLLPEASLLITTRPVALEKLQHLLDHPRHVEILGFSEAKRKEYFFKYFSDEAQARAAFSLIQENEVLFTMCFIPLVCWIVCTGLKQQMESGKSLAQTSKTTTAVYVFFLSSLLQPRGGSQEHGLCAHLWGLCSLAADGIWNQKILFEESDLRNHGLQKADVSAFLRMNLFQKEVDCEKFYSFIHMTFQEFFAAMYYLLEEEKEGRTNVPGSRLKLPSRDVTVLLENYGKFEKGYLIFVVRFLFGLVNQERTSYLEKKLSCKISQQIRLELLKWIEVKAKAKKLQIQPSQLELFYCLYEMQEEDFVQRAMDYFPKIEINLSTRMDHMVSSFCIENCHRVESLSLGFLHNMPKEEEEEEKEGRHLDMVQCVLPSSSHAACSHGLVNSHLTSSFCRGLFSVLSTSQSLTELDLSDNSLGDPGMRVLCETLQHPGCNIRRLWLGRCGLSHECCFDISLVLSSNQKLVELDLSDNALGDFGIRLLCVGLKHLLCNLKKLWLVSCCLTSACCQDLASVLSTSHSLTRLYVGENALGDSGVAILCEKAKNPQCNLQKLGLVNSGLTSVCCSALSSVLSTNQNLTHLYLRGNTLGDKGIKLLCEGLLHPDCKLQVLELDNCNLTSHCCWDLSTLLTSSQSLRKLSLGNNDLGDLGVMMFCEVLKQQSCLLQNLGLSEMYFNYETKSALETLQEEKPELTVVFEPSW
Chain of Tyrosine-protein phosphatase non-receptor type 12 (Q05209 whole entry): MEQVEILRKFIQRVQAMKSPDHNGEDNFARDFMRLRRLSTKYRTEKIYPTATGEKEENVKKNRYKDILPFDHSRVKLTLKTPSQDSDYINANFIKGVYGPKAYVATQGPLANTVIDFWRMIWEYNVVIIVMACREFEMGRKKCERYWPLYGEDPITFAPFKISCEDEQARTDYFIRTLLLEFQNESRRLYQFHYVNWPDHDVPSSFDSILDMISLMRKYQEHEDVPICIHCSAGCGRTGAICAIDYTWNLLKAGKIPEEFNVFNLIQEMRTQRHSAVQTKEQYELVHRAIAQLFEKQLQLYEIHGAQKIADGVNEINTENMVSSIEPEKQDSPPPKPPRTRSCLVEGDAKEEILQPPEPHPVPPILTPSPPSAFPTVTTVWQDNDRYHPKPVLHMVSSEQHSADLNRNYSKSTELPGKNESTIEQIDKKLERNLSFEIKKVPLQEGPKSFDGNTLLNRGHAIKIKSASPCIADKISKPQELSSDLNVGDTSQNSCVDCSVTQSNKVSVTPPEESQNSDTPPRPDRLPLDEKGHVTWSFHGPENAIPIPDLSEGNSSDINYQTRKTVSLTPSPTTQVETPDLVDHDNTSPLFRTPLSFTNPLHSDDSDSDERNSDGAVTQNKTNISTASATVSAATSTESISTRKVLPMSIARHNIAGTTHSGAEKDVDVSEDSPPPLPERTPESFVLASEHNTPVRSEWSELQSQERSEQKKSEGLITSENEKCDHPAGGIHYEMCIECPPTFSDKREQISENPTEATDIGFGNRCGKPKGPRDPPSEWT
Chain of Polyadenylate-binding protein 1 (P11940 whole entry): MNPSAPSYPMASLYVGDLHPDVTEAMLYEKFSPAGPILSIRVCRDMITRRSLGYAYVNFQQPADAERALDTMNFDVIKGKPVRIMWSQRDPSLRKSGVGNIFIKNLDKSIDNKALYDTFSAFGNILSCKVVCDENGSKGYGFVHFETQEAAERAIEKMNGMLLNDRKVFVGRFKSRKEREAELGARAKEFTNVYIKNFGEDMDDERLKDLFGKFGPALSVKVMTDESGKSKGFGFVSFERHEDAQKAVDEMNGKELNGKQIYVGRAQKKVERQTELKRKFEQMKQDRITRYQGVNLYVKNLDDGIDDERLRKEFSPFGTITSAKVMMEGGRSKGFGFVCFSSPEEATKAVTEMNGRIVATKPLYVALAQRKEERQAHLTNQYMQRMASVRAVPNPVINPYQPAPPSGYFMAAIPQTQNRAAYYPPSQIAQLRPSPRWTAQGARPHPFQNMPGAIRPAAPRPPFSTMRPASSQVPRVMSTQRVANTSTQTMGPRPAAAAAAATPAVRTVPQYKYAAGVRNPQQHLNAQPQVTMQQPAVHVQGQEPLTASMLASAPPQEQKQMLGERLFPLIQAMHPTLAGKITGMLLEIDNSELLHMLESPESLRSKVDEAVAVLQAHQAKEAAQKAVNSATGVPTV

Regarding `N#C/C(=C\c1ccc(OCc2ccc(Br)cc2)cc1)C(=O)Nc1cccc(C(=O)O)c1`, the IC50 (in general, the midpoint of a concentration-inhibition curve) was 3.5 µM (active) in test [1]; 0.714 µM (active) in [2]; 0.925 µM (active) in [3]; 0.343 µM (active) in test [4]; 3.37 µM (active) in test [5]; 1.94 µM (active) in test [6]. Further, the IC50 in test [7] was 1.83 µM (active).

For `COc1ccccc1-c1nnc2sc(-c3cc4ccccc4o3)nn12`, the IC50 in the test with J774.A1 is > 25 µM (inactive).

For `Cc1cc(NCCN)nc2ccccc12`, in test [8], the 50% inhibitory concentration (IC50) was > 300 µM (active).

With `C=CCc1ccc(OCCn2nnc3ccccc32)c(OC)c1`, the EC50 (usually the concentration giving half of the maximal effect) in [9] is 0.772 µM (active); in test [10], 1.49 µM (active); in test [11], > 195 µM (inactive); in test [12], > 195 µM (not active); in [13], < 0.1 µM (active); in test [14], 4.24 µM (active). The figures for the EC50 (in the test with H4; in [15]; in [16]) were 8.33 µM (active), 3.71 µM (active) and > 12 µM (not active), respectively.

Turning to `COc1cc(NC(=O)CSc2ccc(-c3ccco3)nn2)cc(OC)c1`, the results for the IC50 in test [17] and in test [18] were 62.7 µM (active) and > 100 µM (inactive), respectively.

In the case of `O=C(Nc1cccc(Br)c1)c1cc2ccccc2o1`, the EC50 in [19] was > 50 µM (active). Further, the IC50 on Bcl-2-related protein A1 [20] was > 100 µM (not active); on Bcl-2-related protein A1 [21], > 100 µM (not active); in test [22] it was 9.81 µM (active).

For `O=C1N(Cc2ccccc2)c2ccccc2C12NNc1ccccc1O2` (configuration not stated), the IC50 in test [23], in [24] and in test [25] was > 100 µM (inactive) throughout.
